From EP1363899B1, “QUINAZOLONE DERIVATIVES AS ALPHA 1A/B ADRENERGIC RECEPTOR ANTAGONISTS” (F.HOFFMANN-LA ROCHE AG, priority 2001, dated 2002)

Experiments:
[1] = target: T1, alpha-1B adrenoceptor (Homo sapiens, UniProt P35368); experiment: [3H]prazosin binding (alpha1-adrenoceptor) assay, alpha-1B; conditions: membranes of transfected CHO-KI cells, read-out: affinity towards the alpha-1B adrenoceptor (pKi) (converted)
T1 construct: expressed in transfected cells; host or cells: CHO-K1
T1 sequence (P35368 1-520): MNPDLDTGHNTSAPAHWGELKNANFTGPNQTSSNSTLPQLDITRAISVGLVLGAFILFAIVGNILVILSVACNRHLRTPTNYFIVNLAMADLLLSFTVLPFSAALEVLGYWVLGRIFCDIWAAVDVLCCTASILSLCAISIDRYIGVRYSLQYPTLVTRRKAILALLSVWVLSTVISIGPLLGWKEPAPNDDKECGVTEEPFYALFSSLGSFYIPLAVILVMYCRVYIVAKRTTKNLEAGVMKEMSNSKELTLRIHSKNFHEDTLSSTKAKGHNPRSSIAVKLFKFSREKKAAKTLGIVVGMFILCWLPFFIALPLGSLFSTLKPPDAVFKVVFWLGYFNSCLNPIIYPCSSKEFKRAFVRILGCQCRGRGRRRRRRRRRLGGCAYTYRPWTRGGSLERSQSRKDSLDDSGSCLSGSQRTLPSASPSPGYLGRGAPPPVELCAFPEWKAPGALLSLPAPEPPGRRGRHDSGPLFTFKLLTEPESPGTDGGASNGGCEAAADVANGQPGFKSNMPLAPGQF
Method: (§1) Alpha1A, alpha1B, and alpha1D adrenoceptor transfected CHO-KI cells, prepared using the methods described by Chang et al., FEBS Lett. 1998, 422:279-283, were grown to confluence in T-162 tissue culture flasks in Ham's F-12 culture medium supplemented with 10% fetal bovine serum, geneticin (150 µg/mL) and streptomycin/penicillin (30 µg/mL/30 µg/mL) at 37 °C in 7% CO2. Cells were harvested by incubating with phosphate-buffered saline (PBS) containing 30 µM EDTA for 5-10 min at 37 °C. Cells were pelleted by centrifuging at 500 x g for 5 min, and the pelleted cells were homogenized (Polytron homogenizer) in 10 vols (w/v) of 50 mM Tris, 1 mM EDTA, (homogenisation buffer, pH 7.4 at 4 °C). The homogenate was centrifuged at 45,000 x g for 20 min. The pellet was resuspended in the homogenizing buffer and rehomogenized. The resulting homogenate was centrifuged at 45,000 x g for 20 min. The pellet was resuspended in 50 mM Tris buffer (pH 7.4 at 4 °C), aliquoted, frozen, and stored at -80 °C for further use.
(§2) The membranes were thawed at room temperature and diluted in assay buffer (50 mM Tris buffer at […]) at 37 °C and homogenized using the Polytron tissue disrupter. The membranes were incubated with the radioligand ([^3H]prazosin, NEN, 0.1 - 0.5 nM) and test compound at 37 °C for 30 min. The membranes were then filtered over polyethyleneimine-treated GF/B unifilter plates using a Packard Filtermate Harvester and washed with ice-cold 50 mM Tris-HCl, 1 mM EDTA buffer (3 x 3 sec. washes). Scintillation cocktail was added to the filter plates and bound radioligand determined by liquid scintillation spectrophotometry.
(§3) For each experiment, total binding (in the absence of any test or reference compounds) and non-specific binding (10 µM phentolamine) were determined. For each sample tested, the concentration producing 50% inhibition of binding (IC50) and Hill Slope (nH) was determined using iterative non-linear curve fitting techniques with Kaleidagraph (Synergy Software) or other appropriate software. If the radioligand KD was known, the inhibition dissociation constant (K1) of each ligand was determined according to the method of Cheng and Prusoff (Cheng, Y-C. and Prusoff, W.H., Biochem. Pharmacol., 1973, 22, 3099-3108).

[2] = target: T2, alpha-1A adrenoceptor (Homo sapiens, UniProt P35348); experiment: [3H]prazosin binding (alpha1-adrenoceptor) assay, alpha-1A; conditions: membranes of transfected CHO-KI cells, read-out: affinity towards the alpha-1A adrenoceptor (pKi) (converted)
T2 construct: expressed in transfected cells; host or cells: CHO-K1
T2 sequence (P35348 1-466): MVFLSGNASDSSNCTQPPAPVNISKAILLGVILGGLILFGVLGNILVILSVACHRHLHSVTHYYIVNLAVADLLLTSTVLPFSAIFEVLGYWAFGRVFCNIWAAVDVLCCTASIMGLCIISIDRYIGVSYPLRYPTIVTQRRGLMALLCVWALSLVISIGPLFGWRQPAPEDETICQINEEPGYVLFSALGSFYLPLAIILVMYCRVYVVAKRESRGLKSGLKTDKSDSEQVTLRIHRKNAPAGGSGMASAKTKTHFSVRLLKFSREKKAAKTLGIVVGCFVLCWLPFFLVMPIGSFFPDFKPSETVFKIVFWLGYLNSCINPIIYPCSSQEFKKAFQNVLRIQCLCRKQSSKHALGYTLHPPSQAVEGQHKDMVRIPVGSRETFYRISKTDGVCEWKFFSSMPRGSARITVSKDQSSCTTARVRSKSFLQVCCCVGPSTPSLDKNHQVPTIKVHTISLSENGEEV
Method: as §1, §2, §3

[3] = target: T3, alpha-1D adrenoceptor (Homo sapiens, UniProt P25100); experiment: [3H]prazosin binding (alpha1-adrenoceptor) assay, alpha-1D; conditions: membranes of transfected CHO-KI cells, read-out: affinity towards the alpha-1D adrenoceptor (pKi) (converted)
T3 construct: expressed in transfected cells; host or cells: CHO-K1
T3 sequence (P25100 1-572): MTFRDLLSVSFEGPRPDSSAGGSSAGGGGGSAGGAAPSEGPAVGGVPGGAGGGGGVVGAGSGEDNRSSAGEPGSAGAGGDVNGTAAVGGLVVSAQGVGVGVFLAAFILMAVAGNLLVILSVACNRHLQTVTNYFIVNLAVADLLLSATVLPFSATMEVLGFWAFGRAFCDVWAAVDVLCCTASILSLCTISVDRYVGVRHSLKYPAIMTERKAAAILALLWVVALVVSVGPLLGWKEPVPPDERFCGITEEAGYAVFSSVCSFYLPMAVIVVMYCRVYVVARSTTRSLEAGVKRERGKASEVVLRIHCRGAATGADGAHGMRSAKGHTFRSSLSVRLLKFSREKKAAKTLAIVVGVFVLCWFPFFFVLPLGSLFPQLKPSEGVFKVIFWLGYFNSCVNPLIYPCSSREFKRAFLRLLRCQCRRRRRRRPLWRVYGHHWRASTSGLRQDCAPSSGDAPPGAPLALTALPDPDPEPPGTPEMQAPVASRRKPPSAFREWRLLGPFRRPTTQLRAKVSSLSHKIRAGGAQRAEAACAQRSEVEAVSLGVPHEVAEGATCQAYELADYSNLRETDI
Method: as §1, §2, §3

Compound	Ki [1]	Ki [2]	Ki [3]
COc1cc2c(cc1OC)CN(C1=Nc3cc(OC)c(OC)cc3S(=O)(=O)N1)CC2 [Compound 101, 3-(6,7-dimethoxy-3,4-dihydro-1H-isoquinolin-2-yl)-6,7-dimethoxy-2H-benzo[1,2,4]thiadiazine-1,1-dioxide]	7.08 nM	1.62 nM	66.1 nM
COc1cc2c(cc1OC)S(=O)(=O)NC(N1CCc3c(ncnc3N3CCOCC3)C1)=N2 [Compound 102, 6,7-dimethoxy-3-(4-morpholin-4-yl-5,8-dihydro-6H-pyrido[3,4d]pyrimidin-7-yl)-2H-benzo[1,2,4]thiadiazine-1,1-dioxide]	31.6 nM	15.8 nM	339 nM
COc1cc2c(cc1OC)CN(c1nc(=O)c3cc(OC)c(OC)cc3[nH]1)CC2 [Compound 105, 2-(6,7-dimethoxy-3,4-dihydro-1H-isoquinolin-2-yl)-6,7-dimethoxy-1H-quinazolin-4-one]	0.759 nM	0.955 nM	47.9 nM
COc1ccc(-c2cccc3c2CCN(c2nc4cc(OC)c(OC)cc4c(=O)[nH]2)C3)cc1 [Compound 106, 6,7-dimethoxy-2-[5-(4-methoxy-phenyl)-3,4-dihydro-1H-isoquinolin-2-yl]-3H-quinazolin-4-one]	0.741 nM	3.8 nM	10000 nM
COc1cc2nc(N3CCc4c(cccc4-c4cccnc4)C3)[nH]c(=O)c2cc1OC [Compound 112, 6,7-dimethoxy-2-(5-pyridin-3-yl-3,4-dihydro-1H-isoquinolin-2-yl)-3H-quinazolin-4-one]	2.04 nM	1.17 nM	132 nM
COc1cc2nc(N3CCc4ccc(N5CCCC5)cc4C3)[nH]c(=O)c2cc1OC [Compound 113, 6,7-dimethoxy-2-(7-pyrrolidin-1-yl-3,4-dihydro-1H-isoquinolin-2-yl)-3H-quinazolin-4-one]	0.912 nM	2.04 nM	33.9 nM
COc1cc2nc(N3CCc4c(cc(OC)c(OC)c4C#N)C3)[nH]c(=O)c2cc1OC [Compound 118, 2-(6,7-dimethoxy-4-oxo-3,4-dihydro-quinazolin-2-yl)-6,7-dimethoxy-1,2,3,4-tetrahydro-isoquinoline-5-carbonitrile]	1.51 nM	0.759 nM	17 nM
COc1cc2[nH]c(N3CCc4c(cccc4N4CCOCC4)C3)nc(=O)c2cc1OC [Compound 131, 6,7-dimethoxy-2-(5-morpholin-4-yl-3,4-dihydro-1H-isoquinolin-2-yl)-1H-quinazolin-4-one]	39.8 nM	89.1 nM	955 nM
COc1cc2[nH]c(N3CCc4cc(O)c(O)cc4C3C)nc(=O)c2cc1OC (stereo not drawn) [Compound 142, 2-(6,7-dihydroxy-1-methyl-3,4-dihydro-1H-isoquinolin-2-yl)-6,7-dimethoxy-1H-quinazolin-4-one]	955 nM	219 nM	38900 nM
COc1cc2nc(N3CCc4c([nH]c5ccccc45)C3)[nH]c(=O)c2cc1OC [Compound 143, 6,7-dimethoxy-2-(1,3,4,9-tetrahydro-β-carbolin-2-yl)-3H-quinazolin-4-one]	1.1 nM	0.479 nM	20.9 nM
COc1cc2nc(N3CCc4nc5ccncc5cc4C3)[nH]c(=O)c2cc1OC [Compound 146, 2-(3,4-dihydro-1H-2,7,10-triaza-anthracen-2-yl)-6,7-dimethoxy-3H-quinazolin-4-one]	5.25 nM	3.47 nM	91.2 nM
COc1cc2[nH]c(N3CCc4ccncc4C3)nc(=O)c2cc1OC [Compound 147, 2-(3,4-dihydro-1H-[2,7]naphthyridin-2-yl)-6,7-dimethoxy-1H-quinazolin-4-one]	41.7 nM	5.5 nM	468 nM
COc1cc2nc(N3CCc4c(ncnc4N4CCN(C)CC4)C3)[nH]c(=O)c2cc1OC [Compound 203, 6,7-dimethoxy-2-[4-(4-methyl-piperazin-1-yl)-5,8-dihydro-6H-pyrido[3,4-d]pyrimidin-7-yl]-3H-quinazolin-4-one]	8.71 nM	4.47 nM	575 nM

The remaining lines, values ahead:

Ki [1]	Ki [2]	Ki [3]	Compound
5.01 nM	6.17 nM	407 nM	COCCN(C)c1ncnc2c1CCN(c1nc3cc(OC)c(OC)cc3c(=O)[nH]1)C2 [Compound 205]
13.2 nM	3.8 nM	182 nM	COc1cc2nc(N3CCc4c(ncnc4Nc4cccc(C)n4)C3)[nH]c(=O)c2cc1OC [Compound 208, 6,7-dimethoxy-2-[4-(6-methyl-pyridin-2-ylamino)-5,8-dihydro-6H-pyrido[3,4-d]pyrimidin-7-yl]-3H-quinazolin-4-one]
0.832 nM	0.912 nM	6.17 nM	COc1cc2[nH]c(N3CCn4c(cnc4-c4ccccc4)C3)nc(=O)c2cc1OC [Compound 302, 6,7-dimethoxy-2-(3-phenyl-5,6-dihydro-8H-imidazo[1,5-a]pyrazin-7-yl)-1H-quinazolin-4-one]
3.09 nM	1.12 nM	19.5 nM	CCCCc1ncc2n1CCN(c1nc(=O)c3cc(OC)c(OC)cc3[nH]1)C2 [Compound 306, 2-(3-butyl-5,6-dihydro-8H-imidazo[1,5-α]pyrazin-7-yl)-6,7-dimethoxy-1H-quinazolin-4-one]
17.4 nM	7.76 nM	123 nM	COc1cc2[nH]c(N3CCn4c(cnc4N4CCOCC4)C3)nc(=O)c2cc1OC [Compound 307, 6,7-dimethoxy-2-(3-morpholin-4-yl-5,6-dihydro-8H-imidazo[1,5-α]pyrazin-7-yl)-1H-quinazolin-4-one]
52.5 nM	15.1 nM	1170 nM	COc1cc2nc(N3CCc4c(cccc4S(=O)(=O)N4CCN(C)CC4)C3)[nH]c(=O)c2cc1OC [Compound 401, 6,7-dimethoxy-2-[5-(4-methyl-piperazine-1-sulfonyl)-3,4-dihydro-1H-isoquinolin-2-yl]-3H-quinazolin-4-one]
